Assay results as given in ChEMBL document CHEMBL1201862, “PubChem BioAssay data set” (2004).
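Step 1: Grow cells in 96-well plates. Step 2: Expose to compound for 48 hours at 5 concentrations. Step 3: Interpolate endpoints linearly; if unreached, use highest concentration. GI50 marks 50% less growth.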 The source made the active and inactive calls. Cut-off read from the data, not from the text of the source: active = GI50 up to about 1.1 µM and inactive = higher. Residues, ends and D or L forms follow the SMILES beside them. *: point of attachment. Boc = CC(C)(C)OC(=O)*; OBn = c1ccc(CO*)cc1

Columns and labels:
Test in all cases: NCI-60 cell line screen, 48 h
HL-60 = test system: HL-60
NCI-H23 = test system: NCI-H23
SK-MEL-28 = test system: SK-MEL-28
HCT-15 = test system: HCT-15
NCI-H226 = test system: NCI-H226
KM12 = test system: KM12
786-0 = test system: 786-0
COLO 205 = test system: COLO 205
MDA-N = test system: MDA-N
IGROV-1 = test system: IGROV-1
DU-145 = test system: DU-145
HT-29 = test system: HT-29
SNB-19 = test system: SNB-19
CAKI-1 = test system: CAKI-1
HOP-62 = test system: HOP-62
HOP-92 = test system: HOP-92
SF-268 = test system: SF-268
NCI/ADR-RES = test system: NCI/ADR-RES
K562 = test system: K562
LOX IMVI = test system: LOX IMVI

SMILES	GI50 (HL-60)	GI50 (NCI-H23)	GI50 (SK-MEL-28)	GI50 (HCT-15) [µM]	GI50 (NCI-H226)	GI50 (KM12)	GI50 (786-0)	GI50 (COLO 205)	GI50 (MDA-N)	GI50 (IGROV-1)	GI50 (DU-145)	GI50 (HT-29)	GI50 (SNB-19)	GI50 (CAKI-1)	GI50 (HOP-62)	GI50 (HOP-92)	GI50 (SF-268)	GI50 (NCI/ADR-RES)	GI50 (K562)	GI50 (LOX IMVI)
COc1ccc2c(C=O)c3n(c(=O)c2c1OC)CCc1cc2c(cc1-3)OCO2	29.7 µM (inactive)	27.2 µM (inactive)	> 100 µM (inactive)	27.7	> 100 µM (inactive)	27.9 µM (inactive)	90.2 µM (inactive)	15.9 µM (inactive)	20 µM (inactive)	56.6 µM (inactive)	78.3 µM (inactive)	17.6 µM (inactive)	76.4 µM (inactive)	> 100 µM (inactive)	> 100 µM (inactive)	10.9 µM (inactive)	> 100 µM (inactive)	18.6 µM (inactive)	–	–
C=CCC1C(=O)Nc2cccc3ncn(c23)C1=O (centres undefined)	> 100 µM (inactive)	> 100 µM (inactive)	> 100 µM (inactive)	> 100	> 100 µM (inactive)	48.9 µM (inactive)	> 100 µM (inactive)	> 100 µM (inactive)	> 100 µM (inactive)	> 100 µM (inactive)	> 100 µM (inactive)	> 100 µM (inactive)	> 100 µM (inactive)	> 100 µM (inactive)	> 100 µM (inactive)	> 100 µM (inactive)	> 100 µM (inactive)	> 100 µM (inactive)	> 100 µM (inactive)	–
CC(=O)Oc1c(C)cc2c(c1C)C(C)CN2C(C)=O (centres undefined)	> 100 µM (inactive)	> 100 µM (inactive)	> 100 µM (inactive)	> 100	> 100 µM (inactive)	> 100 µM (inactive)	> 100 µM (inactive)	> 100 µM (inactive)	> 100 µM (inactive)	> 100 µM (inactive)	> 100 µM (inactive)	> 100 µM (inactive)	> 100 µM (inactive)	–	> 100 µM (inactive)	> 100 µM (inactive)	> 100 µM (inactive)	> 100 µM (inactive)	> 100 µM (inactive)	> 100 µM (inactive)
c1ccc2c(c1)c1c(n2CCOCCN2CCCCC2)CCCC1	2.37 µM (inactive)	15.2 µM (inactive)	24.6 µM (inactive)	14.1	21.7 µM (inactive)	13 µM (inactive)	13.4 µM (inactive)	11.1 µM (inactive)	14.8 µM (inactive)	13.9 µM (inactive)	17.1 µM (inactive)	11.6 µM (inactive)	–	–	15.1 µM (inactive)	8.2 µM (inactive)	16.9 µM (inactive)	10.1 µM (inactive)	6.18 µM (inactive)	13.3 µM (inactive)
O=C(Cn1c(C(=O)/C=C/c2cccs2)nc2ccccc21)c1ccc(Cl)cc1	18.3 µM (inactive)	14.7 µM (inactive)	30.5 µM (inactive)	21.5	53.8 µM (inactive)	11.1 µM (inactive)	16.3 µM (inactive)	17.5 µM (inactive)	21.1 µM (inactive)	16.7 µM (inactive)	26.7 µM (inactive)	19.7 µM (inactive)	25.5 µM (inactive)	–	25.9 µM (inactive)	23.3 µM (inactive)	12.6 µM (inactive)	14 µM (inactive)	7.8 µM (inactive)	13.9 µM (inactive)
CN(C)C1(C(=O)O)CC1	> 100 µM (inactive)	> 100 µM (inactive)	> 100 µM (inactive)	> 100	> 100 µM (inactive)	–	> 100 µM (inactive)	–	> 100 µM (inactive)	> 100 µM (inactive)	> 100 µM (inactive)	> 100 µM (inactive)	> 100 µM (inactive)	–	> 100 µM (inactive)	> 100 µM (inactive)	> 100 µM (inactive)	> 100 µM (inactive)	> 100 µM (inactive)	> 100 µM (inactive)
CCN(CC)C1CCC(C2c3cc4c(cc3OC(N3CCOCC3)C2C)OCO4)CC1 (centres undefined)	22.6 µM (inactive)	19.6 µM (inactive)	16.3 µM (inactive)	12.1	–	16.8 µM (inactive)	33.7 µM (inactive)	7.98 µM (inactive)	4.28 µM (inactive)	> 27.9 µM (inactive)	18.5 µM (inactive)	5.75 µM (inactive)	71.4 µM (inactive)	> 100 µM (inactive)	18.3 µM (inactive)	4.09 µM (inactive)	> 100 µM (inactive)	27 µM (inactive)	8.77 µM (inactive)	11.4 µM (inactive)
CCC(O)(Cc1ccc(OC)cc1)c1ccc(OC)cc1 (centres undefined)	> 100 µM (inactive)	> 100 µM (inactive)	–	> 100	> 100 µM (inactive)	> 100 µM (inactive)	> 100 µM (inactive)	> 100 µM (inactive)	> 100 µM (inactive)	> 100 µM (inactive)	> 100 µM (inactive)	> 100 µM (inactive)	> 100 µM (inactive)	> 100 µM (inactive)	> 100 µM (inactive)	> 100 µM (inactive)	> 100 µM (inactive)	> 100 µM (inactive)	> 100 µM (inactive)	> 100 µM (inactive)
Cc1ccc(S(=O)(=O)c2c(O)c3ccccc3n(C)c2=O)cc1	> 100 µM (inactive)	> 100 µM (inactive)	> 100 µM (inactive)	> 100	> 100 µM (inactive)	> 100 µM (inactive)	> 100 µM (inactive)	> 100 µM (inactive)	> 100 µM (inactive)	> 100 µM (inactive)	> 100 µM (inactive)	> 100 µM (inactive)	> 100 µM (inactive)	> 100 µM (inactive)	> 100 µM (inactive)	> 100 µM (inactive)	> 100 µM (inactive)	> 100 µM (inactive)	> 100 µM (inactive)	–
COc1ccc2c(c1OC)C(=O)O[C@@H]2[C@H]1c2cc3c(cc2CCN1C)OCO3	> 100 µM (inactive)	> 100 µM (inactive)	–	> 100	> 100 µM (inactive)	> 100 µM (inactive)	> 100 µM (inactive)	> 100 µM (inactive)	> 100 µM (inactive)	> 100 µM (inactive)	> 100 µM (inactive)	> 100 µM (inactive)	> 100 µM (inactive)	> 100 µM (inactive)	> 100 µM (inactive)	> 100 µM (inactive)	> 100 µM (inactive)	> 100 µM (inactive)	> 100 µM (inactive)	> 100 µM (inactive)
CC(C)CC(NC(=O)OC(C)(C)C)C(=O)NC(CC(=O)OCc1ccccc1)C(=O)OCc1ccccc1 (stereo not drawn) (Boc-Leu-Asp(OBn)-OBn; configuration not given here)	26.1 µM (inactive)	32.4 µM (inactive)	–	–	57.9 µM (inactive)	41.8 µM (inactive)	19 µM (inactive)	43.2 µM (inactive)	42.2 µM (inactive)	> 10 µM (inactive)	37.9 µM (inactive)	37.5 µM (inactive)	29.4 µM (inactive)	> 100 µM (inactive)	> 100 µM (inactive)	30.6 µM (inactive)	41.8 µM (inactive)	> 100 µM (inactive)	33.5 µM (inactive)	22.8 µM (inactive)
